PubChem BioAssay AID1963981 (Molecular Pharmacology Branch, DTP, NCI, 2024)

Tested on: 354836-022-R-J1-PDC multicell spheroid viability
Experiment: Anticancer human tumor 354836-022-R-J1-PDC patient-derived head and neck squamous cell carcinoma cell line growth inhibition [PI3K]
Conditions: for viability, T/C: stronger effect = lower value
Procedure, shortened: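 High-throughput combination screen: PI3K inhibitors crossed with targeted small molecules on complex spheroids of tumor cells, HUVEC and MSCs at 37 degrees C, 5% CO2. Top concentration was at or near clinical Cmax (otherwise 10 microM), with half-log decrements.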

[1] = curve of first compound, second compound 0.0316 µM
[2] = curve of first compound, second compound 0.1 µM
[3] = curve of first compound, second compound 0.316 µM
[4] = curve of first compound, second compound 1 µM
[5] = second compound 0.0316 µM, first compound 0.0316 µM
[6] = second compound 0.0316 µM, first compound 0.1 µM
[7] = second compound 0.1 µM, first compound 0.0316 µM
[8] = second compound 0.1 µM, first compound 0.1 µM
[9] = second compound 0.316 µM, first compound 0.0316 µM
[10] = second compound 0.316 µM, first compound 0.1 µM
[11] = second compound 1 µM, first compound 0.0316 µM
[12] = second compound 1 µM, first compound 0.1 µM
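Also: spheroids exposed to agents for seven days before the viability read.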

Compound: Cn1ncc(Cl)c1-c1cc(C(=O)NC(CN)Cc2cccc(F)c2)sc1Cl (stereo not drawn) + CC(Nc1ccc2c(c1)OCCn1cc(N3C(=O)OCC3C(F)F)nc1-2)C(N)=O
- IC50 (curve of first compound, second compound 0.00316 µM): 85.2 nM
- IC50 (curve of first compound, second compound 0.01 µM): 92.4 nM
- IC50 [1]: 105 nM
- IC50 [2]: 129 nM
- IC50 [3]: 92.9 nM
- IC50 [4]: 37.2 nM
- viability, T/C (second compound 0.00316 µM, first compound 0.0316 µM): 64.3%
- viability, T/C (second compound 0.00316 µM, first compound 0.1 µM): 48.1%
- viability, T/C (second compound 0.00316 µM, first compound 0.316 µM): 33.3%
- viability, T/C (second compound 0.00316 µM, first compound 1 µM): 20.1%
- viability, T/C (second compound 0.00316 µM, first compound 3.16 µM): 19.9%
- viability, T/C (second compound 0.00316 µM, first compound 10 µM): 5.31%
- viability, T/C (second compound 0.01 µM, first compound 0.0316 µM): 75.2%
- viability, T/C (second compound 0.01 µM, first compound 0.1 µM): 47.5%
- viability, T/C (second compound 0.01 µM, first compound 0.316 µM): 30.2%
- viability, T/C (second compound 0.01 µM, first compound 1 µM): 18.9%
- viability, T/C (second compound 0.01 µM, first compound 3.16 µM): 18.3%
- viability, T/C (second compound 0.01 µM, first compound 10 µM): 5.41%
- viability, T/C [5]: 66.6%
- viability, T/C [6]: 56.4%
- viability, T/C (second compound 0.0316 µM, first compound 0.316 µM): 27.3%
- viability, T/C (second compound 0.0316 µM, first compound 1 µM): 23.9%
- viability, T/C (second compound 0.0316 µM, first compound 3.16 µM): 16.9%
- viability, T/C (second compound 0.0316 µM, first compound 10 µM): 3.21%
- viability, T/C [7]: 83.1%
- viability, T/C [8]: 56%
- viability, T/C (second compound 0.1 µM, first compound 0.316 µM): 29.9%
- viability, T/C (second compound 0.1 µM, first compound 1 µM): 24.2%
- viability, T/C (second compound 0.1 µM, first compound 3.16 µM): 15.9%
- viability, T/C (second compound 0.1 µM, first compound 10 µM): 4.25%
- viability, T/C [9]: 71%
- viability, T/C [10]: 48.8%
- viability, T/C (second compound 0.316 µM, first compound 0.316 µM): 30.7%
- viability, T/C (second compound 0.316 µM, first compound 1 µM): 20.5%
- viability, T/C (second compound 0.316 µM, first compound 3.16 µM): 12.9%
- viability, T/C (second compound 0.316 µM, first compound 10 µM): 5.46%
- viability, T/C [11]: 50.6%
- viability, T/C [12]: 45.2%
- viability, T/C (second compound 1 µM, first compound 0.316 µM): 32.2%
- viability, T/C (second compound 1 µM, first compound 1 µM): 25%
- viability, T/C (second compound 1 µM, first compound 3.16 µM): 13%
- viability, T/C (second compound 1 µM, first compound 10 µM): 4.09%

Compound: Cn1ncnc1[C@H]1c2n[nH]c(=O)c3cc(F)cc(c23)N[C@@H]1c1ccc(F)cc1 + Cc1nc(NC(=O)N2CCCC2C(N)=O)sc1-c1ccnc(C(C)(C)C(F)(F)F)c1
- IC50 [1]: > 100 nM
- IC50 [2]: > 100 nM
- IC50 [3]: > 100 nM
- IC50 [4]: > 100 nM
- IC50 (curve of first compound, second compound 3.16 µM): > 100 nM
- IC50 (curve of first compound, second compound 10 µM): < 0.316 nM
- viability, T/C (second compound 0.0316 µM, first compound 0.000316 µM): 115%
- viability, T/C (second compound 0.0316 µM, first compound 0.001 µM): 90.7%
- viability, T/C (second compound 0.0316 µM, first compound 0.00316 µM): 107%
- viability, T/C (second compound 0.0316 µM, first compound 0.01 µM): 98.4%
- viability, T/C [5]: 105%
- viability, T/C [6]: 88.3%
- viability, T/C (second compound 0.1 µM, first compound 0.000316 µM): 93.6%
- viability, T/C (second compound 0.1 µM, first compound 0.001 µM): 88.7%
- viability, T/C (second compound 0.1 µM, first compound 0.00316 µM): 98%
- viability, T/C (second compound 0.1 µM, first compound 0.01 µM): 93%
- viability, T/C [7]: 98.5%
- viability, T/C [8]: 94%
- viability, T/C (second compound 0.316 µM, first compound 0.000316 µM): 85%
- viability, T/C (second compound 0.316 µM, first compound 0.001 µM): 103%
- viability, T/C (second compound 0.316 µM, first compound 0.00316 µM): 99.5%
- viability, T/C (second compound 0.316 µM, first compound 0.01 µM): 95.8%
- viability, T/C [9]: 81.4%
- viability, T/C [10]: 89.9%
- viability, T/C (second compound 1 µM, first compound 0.000316 µM): 80.8%
- viability, T/C (second compound 1 µM, first compound 0.001 µM): 85.3%
- viability, T/C (second compound 1 µM, first compound 0.00316 µM): 83.3%
- viability, T/C (second compound 1 µM, first compound 0.01 µM): 86.6%
- viability, T/C [11]: 85.3%
- viability, T/C [12]: 77.3%
- viability, T/C (second compound 3.16 µM, first compound 0.000316 µM): 58.2%
- viability, T/C (second compound 3.16 µM, first compound 0.001 µM): 70.1%
- viability, T/C (second compound 3.16 µM, first compound 0.00316 µM): 62.8%
- viability, T/C (second compound 3.16 µM, first compound 0.01 µM): 67.3%
- viability, T/C (second compound 3.16 µM, first compound 0.0316 µM): 59.3%
- viability, T/C (second compound 3.16 µM, first compound 0.1 µM): 62.2%
- viability, T/C (second compound 10 µM, first compound 0.000316 µM): 39.7%
- viability, T/C (second compound 10 µM, first compound 0.001 µM): 38.9%
- viability, T/C (second compound 10 µM, first compound 0.00316 µM): 43.4%
- viability, T/C (second compound 10 µM, first compound 0.01 µM): 45.5%
- viability, T/C (second compound 10 µM, first compound 0.0316 µM): 31.1%
- viability, T/C (second compound 10 µM, first compound 0.1 µM): 30.3%

Compound: CC(Nc1ccc2c(c1)OCCn1cc(N3C(=O)OCC3C(F)F)nc1-2)C(N)=O (stereo not drawn)
- viability, T/C (compound 0.00316 µM): 99.7% [middle of 8 runs]
- viability, T/C (compound 0.01 µM): 96.8% [middle of 8 runs]
- viability, T/C (compound 0.0316 µM): 99.1% [middle of 8 runs]
- viability, T/C (compound 0.1 µM): 87.8% [middle of 7 runs]
- viability, T/C (compound 0.316 µM): 76.5% [middle of 8 runs]
- viability, T/C (compound 1 µM): 53.6% [middle of 8 runs]
- IC50 (compound alone, run of 06/12/2023): > 1000 nM

Compound: C[C@@H](NC(=O)c1ncnc(N)c1Cl)c1ncc(C(=O)Nc2cc(C(F)(F)F)c(Cl)cn2)s1
- viability, T/C (compound 0.0316 µM): 105% [middle of 4 runs]
- viability, T/C (compound 0.1 µM): 99.9% [middle of 4 runs]
- viability, T/C (compound 0.316 µM): 99.3% [middle of 4 runs]
- viability, T/C (compound 1 µM): 98.5% [middle of 4 runs]
- viability, T/C (compound 3.16 µM): 105% [middle of 4 runs]
- viability, T/C (compound 10 µM): 70.9% [middle of 4 runs]
- IC50 (curve of compound): > 10000 nM
